According to patent publication US8119695B2, “Compounds and methods for treating breast cancer and other diseases” (City of Hope, priority 2003, dated 2012):

Key:
Format in all cases: cell-based
[1] = system: ERRs; assay: repression / antagonism of ERRs; details: result in words
[2] = system: ERRα (GAL-ERRa); assay: MH100x4 luciferase reporter with GAL-ERRa; parameters: Reporter Activity: unit not given here
Excerpt: (§1) MH100x4 is a luciferase reporter with four copies of a GAL4 […] response element. GAL-L refers to the ligand-binding domain of the indicated receptor fused to the C-terminus of the GAL4 DNA binding domain.

[3] = system: ERRγ (GAL-ERRg); assay: MH100x4 luciferase reporter with GAL-ERRg; parameters: Reporter Activity: unit not given here; details: for Fold Activation / Reporter Activity: Table 3, dose 2.5 (unit not given); for Fold Activation: None 1; for Reporter Activity: None 2.2
Excerpt: as §1

[4] = system: MH100x4; assay: MH100x4 luciferase reporter without receptor; details: Table 3, dose 2.5 (unit not given); for Reporter Activity: None 0.57; for Fold Activation: None 1
Excerpt: as §1

[5] = target: T1, ERRβ (GAL-L-ERRb) (Homo sapiens, UniProt O95718); assay: MH100x4 luciferase reporter with GAL-L-ERRb; parameters: Reporter Activity: unit not given here
T1 construct: expressed in transfected cells
T1 sequence (O95718 208-432 limits assumed): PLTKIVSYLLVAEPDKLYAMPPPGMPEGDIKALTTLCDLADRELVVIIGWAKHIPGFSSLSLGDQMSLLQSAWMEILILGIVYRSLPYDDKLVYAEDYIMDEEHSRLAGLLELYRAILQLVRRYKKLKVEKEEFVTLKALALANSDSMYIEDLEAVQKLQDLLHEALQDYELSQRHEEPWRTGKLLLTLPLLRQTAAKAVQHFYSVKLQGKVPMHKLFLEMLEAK
Excerpt: as §1

[6] = system: ERE-TK-luc; assay: ERE-TK-luc reporter without receptor, E2 100 nM; details: Table 6; for Fold Activation: None 1.00; for Reporter Activity: None 1.44
[7] = target: T2, ERβ (ERb) (Homo sapiens, UniProt Q92731); assay: ERE-TK-luc reporter with ERb, E2 100 nM; details: Table 6, None 2.88
T2 construct: expressed in transfected cells

[8] = target: T3, ERα (ERa) (Homo sapiens, UniProt P03372); assay: ERE-TK-luc reporter with ERa, E2 100 nM; details: Table 6, None 3.43
T3 construct: expressed in transfected cells
T3 sequence (P03372 1-595): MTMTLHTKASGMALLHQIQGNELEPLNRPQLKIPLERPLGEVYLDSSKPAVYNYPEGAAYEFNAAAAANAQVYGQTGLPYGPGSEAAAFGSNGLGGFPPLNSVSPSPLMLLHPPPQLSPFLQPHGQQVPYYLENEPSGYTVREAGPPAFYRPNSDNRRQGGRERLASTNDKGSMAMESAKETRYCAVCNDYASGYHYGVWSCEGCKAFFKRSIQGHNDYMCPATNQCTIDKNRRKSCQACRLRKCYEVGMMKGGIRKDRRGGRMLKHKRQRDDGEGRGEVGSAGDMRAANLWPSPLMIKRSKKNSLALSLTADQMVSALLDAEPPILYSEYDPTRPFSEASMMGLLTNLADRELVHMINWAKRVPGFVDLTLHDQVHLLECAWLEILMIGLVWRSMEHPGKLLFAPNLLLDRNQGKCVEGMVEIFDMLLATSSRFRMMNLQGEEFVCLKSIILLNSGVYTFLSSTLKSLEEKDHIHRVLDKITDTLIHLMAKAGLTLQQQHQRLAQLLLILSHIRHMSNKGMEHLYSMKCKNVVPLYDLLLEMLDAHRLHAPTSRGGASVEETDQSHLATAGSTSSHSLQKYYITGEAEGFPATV

[9] = Table 3, dose 2.5 (unit not given), None 1
[10] = Table 3, dose 2.5 (unit not given), None 8.18
[11] = Table 3, dose 2.5 (unit not given), None 2.38
[12] = E2 100 nM + DY 40, head 0 μM (1st)
[13] = E2 100 nM + DY 40, head 0 μM (2nd)

T2 sequence (Q92731 whole entry, species assumed): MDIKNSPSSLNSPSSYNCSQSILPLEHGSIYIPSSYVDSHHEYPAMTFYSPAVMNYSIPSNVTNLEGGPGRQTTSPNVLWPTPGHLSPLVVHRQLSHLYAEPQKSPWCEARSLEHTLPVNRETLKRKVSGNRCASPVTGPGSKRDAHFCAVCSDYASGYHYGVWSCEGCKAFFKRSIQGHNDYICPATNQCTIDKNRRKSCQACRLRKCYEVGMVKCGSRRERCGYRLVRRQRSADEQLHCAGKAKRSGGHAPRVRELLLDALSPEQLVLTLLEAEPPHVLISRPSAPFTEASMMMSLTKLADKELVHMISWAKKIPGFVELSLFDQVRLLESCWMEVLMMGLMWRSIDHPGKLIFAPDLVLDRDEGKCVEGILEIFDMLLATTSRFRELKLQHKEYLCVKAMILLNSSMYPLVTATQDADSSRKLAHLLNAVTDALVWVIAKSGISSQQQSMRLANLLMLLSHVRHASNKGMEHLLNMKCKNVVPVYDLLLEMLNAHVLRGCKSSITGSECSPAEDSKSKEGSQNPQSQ

In the case of `CCC(=C(c1ccc(O)cc1)c1ccc(O)cc1)c1ccccc1` [DY25, 1,1-Bis(4-hydroxyphenyl)-2-phenylbut-1-ene], the “repression of ERRs” value [1] was “does not repress ERRs”.

`Oc1ccc(C(=C(CCCl)c2ccccc2)c2ccc(O)cc2)cc1` [DY30] was tested, and the “Fold Activation” value [2, 9] was 1.03, the “Reporter Activity” value [2, 10] was 8.46 and the “repression of ERRs” value [1] was “does not repress ERRs”. The “Fold Activation” value [3] was 0.68, the “Reporter Activity” value [3] was 1.5 and the “Reporter Activity” value [4] was 0.56. For the same compound, the “Fold Activation” value [4] was 0.98, the “Fold Activation” value [5, 9] was 0.86 and the “Reporter Activity” value [5, 11] was 2.04.

`Oc1ccc(C(=C(CCCCl)c2ccccc2)c2ccc(O)cc2)cc1` [DY31] was tested, and the “Fold Activation” value [2, 9] was 1.06, the “Reporter Activity” value [2, 10] was 8.71 and the “repression of ERRs” value [1] was “does not repress ERRs”. For the same compound, the “Fold Activation” value [3] was 0.53, the “Reporter Activity” value [3] was 1.16 and the “Reporter Activity” value [4] was 0.4. The “Fold Activation” value [4] was 0.7, the “Fold Activation” value [5, 9] was 0.74 and the “Reporter Activity” value [5, 11] was 1.75.

`CC(C)C(=C(c1ccc(O)cc1)c1ccc(O)cc1)c1ccccc1` [DY34, 1,1-Bis(4-hydroxyphenyl)-2-phenylbut-3-methyl-1-ene] was tested, and the “Fold Activation” value [2, 9] was 1.01, the “Reporter Activity” value [2, 10] was 8.24 and the “repression of ERRs” value [1] was “does not repress ERRs”. The “Fold Activation” value [3] was 0.61, the “Reporter Activity” value [3] was 1.35 and the “Fold Activation” value [5, 9] was 0.48. The “Reporter Activity” value [5, 11] was 1.15.

With `CCCC(=C(c1ccc(O)cc1)c1ccc(O)cc1)c1ccccc1` [DY37] the “repression of ERRs” value [1] was “does not repress ERRs”.

`CC(=O)Oc1ccc(/C(=C(/c2ccccc2)C(C)C)c2ccc(OCCN(C)C)cc2)cc1` [DY40, (E,Z)-4-{1-[4-(2-dimethylamino-ethoxy)-phenyl]-3-methyl-2-phenyl-but-1-enyl}-phenyl acetate] was tested, and the “Fold Activation” value ([2]; Table 4, DY40 dose head 0 (1st of 3), None 1.23) was 1.24, the “Reporter Activity” value ([2]; Table 4, DY40 dose head 0 (1st of 3), None 34.05) was 34.34 and the “Fold Activation” value ([2]; Table 4, DY40 dose head 0 (2nd of 3), None 1.23) was 1.17. For the same compound, the “Reporter Activity” value ([2]; Table 4, DY40 dose head 0 (2nd of 3), None 34.05) was 32.4, the “Fold Activation” value ([2]; Table 4, DY40 dose head 0 (3rd of 3), None 1.23) was 1.23 and the “Reporter Activity” value ([2]; Table 4, DY40 dose head 0 (3rd of 3), None 34.05) was 34. For the same compound, the “Fold Activation” value ([2]; Table 4, dose 0.1 (unit not given), None 1/1.23) was 1.3, the “Reporter Activity” value ([2]; Table 4, dose 0.1 (unit not given), None 27.7/34.05) was 37 and the “Fold Activation” value ([2]; Table 4, dose 0.3 (unit not given), None 1/1.23) was 1.47. The “Reporter Activity” value ([2]; Table 4, dose 0.3 (unit not given), None 27.7/34.05) was 40.8, the “Fold Activation” value ([2]; Table 4, dose 1 (unit not given), None 1/1.23) was 0.98 and the “Reporter Activity” value ([2]; Table 4, dose 1 (unit not given), None 27.7/34.05) was 27.3. For the same compound, the “Fold Activation” value ([6]; E2 100 nM + DY 40 0.01 μM) was 1.03, the “Reporter Activity” value ([6]; E2 100 nM + DY 40 0.01 μM) was 1.48 and the “Fold Activation” value ([6]; E2 100 nM + DY 40 0.03 μM) was 0.85. The “Reporter Activity” value ([6]; E2 100 nM + DY 40 0.03 μM) was 1.22, the “Fold Activation” value ([6]; E2 100 nM + DY 40 0.1 μM) was 0.69 and the “Reporter Activity” value ([6]; E2 100 nM + DY 40 0.1 μM) was 0.99. The “Fold Activation” value ([6]; E2 100 nM + DY 40 0.3 μM) was 0.47, the “Reporter Activity” value ([6]; E2 100 nM + DY 40 0.3 μM) was 0.67 and the “Fold Activation” value [6, 12] was 0.90. The “Reporter Activity” value [6, 12] was 1.29, the “Fold Activation” value [6, 13] was 0.81 and the “Reporter Activity” value [6, 13] was 1.17. For the same compound, the “Reporter Activity” value ([7]; E2 100 nM + DY 40 0.01 μM) was 3.19, the “Reporter Activity” value ([7]; E2 100 nM + DY 40 0.03 μM) was 2.36 and the “Reporter Activity” value ([7]; E2 100 nM + DY 40 0.1 μM) was 1.58. For the same compound, the “Reporter Activity” value ([7]; E2 100 nM + DY 40 0.3 μM) was 1.09, the “Reporter Activity” value [7, 12] was 9.37 and the “Reporter Activity” value [7, 13] was 6.03. The “inhibition of the activity of ERRγ” value [3] was “inhibit the activity”, the “potency antagonizing ERRγ relative to 4-hydroxytamoxifen” value [3] was “about 30 fold” and the “Reporter Activity” value ([8]; E2 100 nM + DY 40 0.01 μM) was 5.07. The “Reporter Activity” value ([8]; E2 100 nM + DY 40 0.03 μM) was 2.42, the “Reporter Activity” value ([8]; E2 100 nM + DY 40 0.1 μM) was 1.97 and the “Reporter Activity” value ([8]; E2 100 nM + DY 40 0.3 μM) was 1.32. For the same compound, the “Reporter Activity” value [8, 12] was 13.55, the “Reporter Activity” value [8, 13] was 8.57 and the “Fold Activation” value ([5]; Table 4, DY40 dose head 0 (1st of 3), None 1.2) was 1.33. The “Reporter Activity” value ([5]; Table 4, DY40 dose head 0 (1st of 3), None 8.67) was 9.61, the “Fold Activation” value ([5]; Table 4, DY40 dose head 0 (2nd of 3), None 1.2) was 0.92 and the “Reporter Activity” value ([5]; Table 4, DY40 dose head 0 (2nd of 3), None 8.67) was 6.61. For the same compound, the “Fold Activation” value ([5]; Table 4, DY40 dose head 0 (3rd of 3), None 1.2) was 0.7, the “Reporter Activity” value ([5]; Table 4, DY40 dose head 0 (3rd of 3), None 8.67) was 5.07 and the “Fold Activation” value ([5]; Table 4, dose 0.1 (unit not given), None 1/1.2) was 0.2. The “Reporter Activity” value ([5]; Table 4, dose 0.1 (unit not given), None 7.21/8.67) was 1.4, the “Fold Activation” value ([5]; Table 4, dose 0.3 (unit not given), None 1/1.2) was 0.1 and the “Reporter Activity” value ([5]; Table 4, dose 0.3 (unit not given), None 7.21/8.67) was 0.73. The “Fold Activation” value ([5]; Table 4, dose 1 (unit not given), None 1/1.2) was 0.08, the “Reporter Activity” value ([5]; Table 4, dose 1 (unit not given), None 7.21/8.67) was 0.59 and the “potency antagonizing ERRβ relative to 4-hydroxytamoxifen” value ([5]; greater than 4-hydroxytamoxifen) was “about 30 fold”. The “inhibition of the activity of ERRβ” value ([5]; result in words) was “inhibit the activity”.
